Data: patent US20210171948A1, “COMPOSITIONS AND METHODS FOR TARGETING GLYPICAN-2 IN THE TREATMENT OF CANCER” (Shepherd Therapeutics, Inc., priority 2019, published 2021)
Strand notation (5' to 3'): a small letter for the sugar, then the base; units joined by * are phosphorothioate-linked, units joined directly phosphodiester-linked; [ ] holds rarer units or linkages, { } end groups; capitals alone tell only the bases. d = 2'-deoxy (DNA); r = 2'-OH (RNA)

Columns and labels:
Assay type in all cases: cell-based
CHLA-90 cells = assay: Topotecan IC50 in siRNA-transfected cells, Cell Titer Glo 2.0 viability (Example 10)
Description: (§1) GPC2 mRNA expression was reduced and changes in cell viability were assessed in multiple neuroblastoma cell lines. Cells were transfected with either a control siRNA or with GPC2 siRNA sequences 5 or 7 from Table 7 using the RNAiMAX Lipofectamine kit (Invitrogen, Carlsbad, Calif.) as previously described in 96 wells for viability assays. Topotecan was added at increasing concentrations (0-5 uM) to transfected cells at 24 hours post transfection. Following a 72 hour incubation period, viability measurements were made using Cell Titer Glo 2.0.

CHP212 cells = assay: as above
Description: as §1

KELLY cells = assay: as above
Description: as §1

SH-SY5Y cells = assay: as above
Description: as §1

SK-N-BE2 cells = assay: as above
Description: as §1

SKNAS cells = assay: as above
Description: as §1

[1] = test system: spheroids from CHP212, SKNAS, SK-N-BE2 and CHLA90 neuroblastoma cells; assay: Viability of established spheroid cultures after siRNA transfection (Example 11); settings: 96 hour following transfection; where GPC2 knockdown was observed (FIG. 7B)
Description: The effect of siRNA mediated GPC2 mRNA knockdown was also assessed on established spheroid cultures. Spheroids were established by seeding cells in low attachment plates and culturing for 96 hours. Spheroids were transfected with either a scrambled control siRNA or with GPC2 siRNA of sequence 5 or 7 from Table 7, using the RNAiMAX Lipofectamine kit (Invitrogen, Carlsbad, Calif.) as previously described. At the 96 hour time point following transfection, the degree of GPC2 mRNA knockdown (FIG. 7A) as well as spheroid viability (FIG. 7B) was measured.

Substance: GPC2 siRNA 7: siRNA duplex: sense CUCCUUUCUGGUUCACACA[dT][dT] (SEQ ID NO: 215), anti-sense UGUGUGAACCAGAAAGGAG[dT][dT] (SEQ ID NO: 216) (sense rCrUrCrCrUrUrUrCrUrGrGrUrUrCrArCrArCrAdTdT; antisense rUrGrUrGrUrGrArArCrCrArGrArArArGrGrArGdTdT; listed as Homo sapiens)
- Data Summary: effect of knockdown on sensitivity to topotecan (CHLA-90 cells; CHLA-90): not increase sensitivity to topotecan
- IC50 (CHLA-90 cells; CHLA-90 cells transfected with the labelled siRNA, topotecan added 24 hours post transfection, 72 hour incubation): 140 nM
- Data Summary: effect of knockdown on sensitivity to topotecan (CHP212 cells; CHP212): not increase sensitivity to topotecan
- IC50 (CHP212 cells; CHP212 cells transfected with the labelled siRNA, topotecan added 24 hours post transfection, 72 hour incubation): 10 nM
- Data Summary: effect of knockdown on sensitivity to topotecan (KELLY cells; KELLY): not increase sensitivity to topotecan
- IC50 (KELLY cells; KELLY cells transfected with the labelled siRNA, topotecan added 24 hours post transfection, 72 hour incubation): 20 nM
- Data Summary: effect of knockdown on sensitivity to topotecan (SH-SY5Y cells; SH-SY5Y): not increase sensitivity to topotecan
- IC50 (SH-SY5Y cells; SH-SY5Y cells transfected with the labelled siRNA, topotecan added 24 hours post transfection, 72 hour incubation): 40 nM
- Data Summary: effect of knockdown on sensitivity to topotecan (SK-N-BE2 cells; SK-N-BE2): not increase sensitivity to topotecan
- IC50 (SK-N-BE2 cells; SK-N-BE2 cells transfected with the labelled siRNA, topotecan added 24 hours post transfection, 72 hour incubation): 10 nM
- Data Summary: effect of knockdown on sensitivity to topotecan (SKNAS cells; SKNAS): increases sensitivity to topotecan
- IC50 (SKNAS cells; SKNAS cells transfected with the labelled siRNA, topotecan added 24 hours post transfection, 72 hour incubation): 20 nM
- Viability of established spheroids [1]: a decrease in spheroid viability was also seen
